Measurements from paper PMC12459184, “Design, synthesis, and bioevaluation of pyrazole-containing tubulin polymerisation inhibitors based on conformational constraint strategy” (Journal of Enzyme Inhibition and Medicinal Chemistry, 2025).
Where two headings read alike, the source gives them in different places.

Assays:
[1] = test system: PC-3 cells; experiment: Cell cycle analysis by flow cytometry; type: cell-based, human; conditions: 24 h, vehicle 15%
Method: The G2/M phase of cell cycle involves mass physiological activities of microtubules, and tubulin polymerisation inhibitors could arrest cell cycle in G2/M phase by inhibiting microtubule polymerisation.
PC-3 cells in logarithmic phase were harvested and seeded onto 6-well cell plates at a density of 2.5 × 10^5 cells per well, and were cultured for 24 h. […] The cells were digested using trypsin and the suspended cells were harvested. Then the cells were washed with PBS and fixed in 75% ice-cold ethanol at 4 °C overnight. The fixed cells were harvested by centrifugation and washed with PBS, resuspended in 535 μL buffer containing 10 μL RNase (50 ×) and 25 μL PI (20 ×). After incubation at 37 °C in the dark for 30 min, the samples were filtered by nylon screen and detected by FACScan flow cytometry (BectoneDickinson, Franklin Lakes, NJ, USA).

[2] = test system: Cyclin B1; experiment: Western blot assay, Cyclin B1; type: cell-based, human; conditions: PC-3 cells, at the concentrations of 20 and 40 nM
Method: Additionally, western blot assay was employed to measure the expression level of cell cycle-related proteins cyclin-dependent kinase 1 (CDK1) and Cyclin B1.
PC-3 cells in logarithmic phase were harvested and seeded onto culture plates, and were cultured for 24 h. […] The proteins of PC-3 cells were extracted by RIPA buffer containing 1% PMSF (Beyotime Biotechnology, China). The protein concentration was measured by BCA Assay Kit (SEVEN Biotech, China). Equal amounts and concentration of protein were diluted in 5× loading buffer (Beyotime, China) and denatured by boiled for 5 min. Protein samples were separated on 12.5% SDS-PAGE gels (EpiZyme, China) and transferred to PVDF membranes (Millipore Corporation, Billerica, MA, USA). The membranes were blocked in QuickBlockTM Block Buffer (SEVEN Biotech, China) for 10 min at room temperature. Then the membranes were incubated with the primary antibodies overnight at 4 °C, including Cyclin B1 (1:2000, Proteintech, China), CDK1 (1:5000, Proteintech, China), BAX (1:5000, Proteintech, China), Bcl2 (1:1000, Proteintech, China), Caspase 9/p35/p10 (1:1000, Proteintech, China), and β-actin (1:20 000, Proteintech, China). […] The protein signals were detected by using chemiluminescent reagents kit (NCM Biotech, China) and visualised with ChemiDocImaging System (Tanon 5200, China). Protein expressions was quantified by using Fiji/ImageJ software.

[3] = test system: PC-3 cells; experiment: Transwell migration assay; type: cell-based, human; conditions: 24 h, relative to untreated cells
Method: Transwell migration assay was used on PC-3 cells to further investigate the effect of 4k and 5a on cell migration.
PC-3 cells in logarithmic phase were harvested and seeded onto six-well cell plates at a density of 4 × 10^4 cells per well, and were cultured for 24 h. […] Then these cells were harvested and seeded onto the top chambers of transwell filters (Corning) at a concentration of 4 × 10^4 cells with 200 μL of FBS-free medium per well in 24-well culture plates, while the bottom chambers were added 600 μL of medium containing 10% FBS. The cells were cultured for additional 24 h, then the cells that migrated to the bottom of the top chambers were fixed with 4% paraformaldehyde and subsequently stained with crystal violet solution. Images were taken by an inverted microscope and analysed by Fiji/ImageJ software.

[4] = test system: SGC-7901 cells; experiment: MTT antiproliferative assay, SGC-7901; type: cell-based; conditions: Homo sapiens, read-out: IC50 (μM) ± SD SGC-7901
Method: The in vitro antiproliferative activities of all target compounds 4a−k, 5a−h, and 6a−h were assayed by MTT method using human gastric cancer cell line SGC-7901 and human breast cancer cell line MCF-7.
(§1) All cell lines tested in this study were purchased from the American Type Culture Collection (ATCC, Manassas, VA). SGC-7901 (human gastric adenocarcinoma), HCT-116 (human colon carcinoma), and A549 (human pulmonary carcinoma) cells were cultured in RPMI-1640 medium containing 10% foetal serum (FBS) and 1% penicillin-streptomycin solution (100×). MCF-7 (human breast carcinoma) cells were cultured in DMEM medium containing 10% foetal serum (FBS) and 1% penicillin-streptomycin solution (100×). PC-3 (human prostate carcinoma) cells were cultured in Ham’s F-12K medium containing 10% foetal serum (FBS) and 1% penicillin-streptomycin solution (100×). All cells were cultured at 37 °C in a humidified atmosphere containing 5% CO2.
(§2) Cells grown in logarithmic phase were harvested and seeded onto 96-well cell plates at a density of 4 ∼ 5 × 10^3 cells per well (various from cell type) and were cultured for 24 h. Different concentrations of compounds were added into the wells, and the cells were cultured for another 72 h. The medium was removed, then 20 μL of MTT (5 mg/mL in PBS) was added to each well and the cells were incubated for 4 h. 150 μL of DMSO was added to each well to dissolve the formazan, and the absorbance at 490 nm of each well was measured by a microplate reader. IC50 values were calculated by SPSS software.

[5] = test system: human liver cells (L02); experiment: MTT toxicity assay, normal cells L02; type: cell-based; conditions: for IC50: Homo sapiens, read-out: IC50 (μM) ± SD L02; for SI-L: SI-L = IC50 (L02)/IC50 (PC-3)
Method: (§3) The toxicity of compounds 4k and 5a was also tested by using human umbilical vein endothelial cells (HUVEC) and human liver cells (L02).
as §2

[6] = test system: tubulin; experiment: In vitro tubulin polymerisation assay; type: biochemical
Method: To investigate the effect of compounds 4k and 5a on microtubule system, their tubulin polymerisation inhibition activities were evaluated using in vitro tubulin polymerisation assay.
The BK001 kit used in this test was purchased from Cytoskeleton Inc. (Denver, CO, USA). […] Then the mixtures were transferred to 37 °C and tubulin assembly was monitored (excitation wavelength: 360 nm; emission wavelength: 420 nm) at 1 min intervals for 90 min by a microplate reader.

[7] = test system: A549 cells; experiment: MTT antiproliferative assay, A549; type: cell-based; conditions: Homo sapiens, 72 h drug exposure, read-out: IC50 (μM) ± SD A549
Method: as §1, §2

[8] = test system: human umbilical vein endothelial cells (HUVEC); experiment: MTT toxicity assay, normal cells HUVEC; type: cell-based; conditions: for IC50: Homo sapiens, HUVEC, read-out: IC50 (μM) ± SD HUVEC; for SI-H: SI-H = IC50 (HUVEC)/IC50 (PC-3)
Method: as §3, §2

[9] = 72 h drug exposure, MTT assay, normal cells

Row | IC50 ([4]; SGC-7901, 72 h drug exposure, MTT assay) | SMILES | proportion of cells in G2/M phase ([1]; 10–40 nM) | level of Cyclin B1 [2] | percentage of migrated cells ([3]; PC-3, 5 nM) | percentage of migrated cells ([3]; PC-3, 10 nM) | percentage of migrated cells ([3]; PC-3, 20 nM) | IC50 [5, 9] | SI-L [5] | effect on tubulin polymerisation (fluorescence intensity) ([6]; 5 μM and 10 μM) | tubulin polymerisation inhibitory potency compared with colchicine (3 μM) ([6]; 5 μM and 10 μM) | IC50 [7] | IC50 [8, 9] | SI-H [8] | proportion of cells in G2/M phase ([1]; 70 nM) | proportion of cells in G2/M phase ([1]; 100 nM) | IC50 ([4]; SGC-7901, 72 h) | IC50 ([5]; 72 h) | effect on tubulin polymerisation (fluorescence intensity) ([6]; 10 μM and 20 μM) | tubulin polymerisation inhibitory potency compared with colchicine (3 μM) ([6]; 20 μM) | IC50 ([8]; 72 h)
1 | 0.017 ± 0.002 µM | COc1cc(C(=O)c2nn(-c3ccc(N)cc3)cc2N)cc(OC)c1OC [4k, (4-amino-1–(4-aminophenyl)-1H-pyrazol-3-yl)(3,4,5-trimethoxyphenyl)methanone] | 33–71% | increase | 60.4% | 25.7% | 18.7% | 0.025 ± 0.008 µM | 1.713 | inhibition of tubulin polymerisation | higher potency than colchicine | 0.04 ± 0.012 µM | 0.57 ± 0.167 µM | 39.11 | – | – | – | – | – | – | –
2 | – | COc1cc(C2=NCC(=O)Nc3cn(-c4ccccc4)nc32)cc(OC)c1OC [5a, 2-Phenyl-8–(3,4,5-trimethoxyphenyl)-2,6-dihydropyrazolo[4,3-e][1,4]diazepin-5(4H)-one] | – | increase | 53.6% | 49.1% | 27.8% | – | 35.00 | – | – | 0.063 ± 0.017 µM | – | 147.7 | 35% | 71% | 0.018 ± 0.003 µM | 0.204 ± 0.056 µM | inhibition of tubulin polymerisation | superior inhibitory potency compared to colchicine | 0.86 ± 0.229 µM
